# Values joined by “and” are separate entries in the source; they are usually repeats but may differ in a detail not shown here. Equal values may be shown once.
# Test system: vacuolized neurons in the PC/RS cortex (MK-801-induced neuronopathy)
# Assay: Inhibitory effect on MK-801-induced neurodegeneration (number of vacuolized neurons)
# Format: in vivo, mice (Std-ddY male)
# Method: The pharmacological test was carried out according to the method of D. F. Wozniak, et al. [Brain Research, Vol. 707, pp 165-178 (1996)].
# The cerebrum was cut transversely from the anterior termination at approximately 4 mm to the posterior termination, and then embedded in cold polymerized resin (Technovit7100, manufactured by Kulzer in Germany). The slices containing the PC/RS cortex were obtained at four Anterior-Posterior levels at intervals of 300 μm from the exposed section of the block, and at each level two slices (3 μm in thickness) were consecutively obtained. The histological change (on Hematoxylin and eosin stain specimen) and the number of vacuolized neurons (on Nissl stain specimen) were observed by a light microscope for each 4 slices, respectively.
# [1] = individual mouse, Compound A 1 mg/kg p.o. 30 min before MK-801 1 mg/kg s.c., 5 h after MK-801, PC/RS cortex
structure (smiles),measurement,setting,value
"COc1cccc(-c2nccc3[nH]c(=O)c(-c4noc(C)n4)cc23)c1 [Compound A, 3-(5-Methyl-1,2,4-oxadiazol-3-yl)-5-(3-methoxyphenyl)-1,6-naphthyridin-2(1H)-one]","Vacuolization, Mean(/slice) Group","group mean of three mice, Compound A 1 mg/kg p.o. + MK-801 1 mg/kg s.c., 5 h",4.3 /slice
same,"Vacuolization, Slice No. 1",[1],0 (2×) and 20
same,"Vacuolization, Slice No. 2",[1],0 (2×) and 12
same,"Vacuolization, Slice No. 3",[1],0 and 10 and 2
same,"Vacuolization, Slice No. 4",[1],0 and 5 and 2
same,"Vacuolization, Mean(/slice) Individual","mean of 4 slices per mouse, Compound A 1 mg/kg p.o. + MK-801 1 mg/kg s.c., 5 h",0.0 /slice and 11.8 /slice and 1.0 /slice
same,retardation or inhibition of neurodegeneration in the PC/RS cortex induced by MK-801 (in words),"mice, Compound A 1 mg/kg p.o. before MK-801 1 mg/kg s.c.",potent retardation or inhibition of neurodegeneration

# From patent US20030166673A1, “Medicines for the prevention and treatment of neurodegenerative diseases” (priority 2001, published 2003)
